Assay results published in patent US20090092975A1, “SELECTABLE MARKER” (Mologic Ltd, priority 2005, published 2009).
Like-named read-outs stand apart in the source and are kept apart here.

Columns and labels:
[1] = system: Saccharomyces cerevisiae strain 62 expressing PAD1; format: cell-based; conditions: predicted decarboxylation product in headspace; weak acid 0.5 mM, YEPD pH 4, 10 h at 28° C.; 0 = no decarboxylation
Experimental: S. cerevisiae strain 62 (which expresses the PAD1 gene) was cultured for 48 hr in YEPD pH 4, Yeast extract 10 g, Peptone 20 g, Glucose 20 g, at 28° C. in a shake flask, 120 rpm. The stationary-phase cells were inoculated into capped 28 ml McCartney bottles containing 10 mls YEPD pH 4, at 1 million cells per ml. Each bottle also contained one of 70 substrate weak acids at 0.5 mM. Tubes were then shaken for 10 h at 28° C.
1 ml samples of the headspace were passed into stainless-steel thermal desorption tubes, followed by a 10 ml air flush. (Desorption tubes—89 mm×5 mm ID, packed with 200 mg Tenax TA 60-80 mesh, Phase Separations, UK).
Thermal desorption tubes were placed in a Perkin Elmer ATD400 thermal desorption system, and the volatiles transferred to the Gas Chromatograph in a 2 stage process. Primary desorption was 250° C. for 10 min with a helium flow of […]. Using a split ratio of 1:1, volatiles were retained on a cold trap (25 mg Tenax TA) held at −30° C. Secondary desorption was carried out by rapidly heating and holding the cold trap at 250° C. for 2 min, with a helium flow of 20 ml/min and split ratio of 19:1. A DB624 column {30 m×0.32 mm, 1.8 microns film thickness} installed in a Carbo Erba GC800 was used to achieve separation and introduction of the volatile to the mass spectrometer. The column temperature was held at 40° C. for 2 min then increased at 5° C./min to 250° C. The column outlet was coupled via a heated transfer line at 250° C. into the ion source of the mass spectrometer operated at 70 eV in electron ionization (EI) mode. The source temperature was at 200° C. and the detector photomultiplier at 500V. Full scan MS data acquisition was carried out from m/z 30 to 300, with 0.6 sec scan and 0.05 sec inter scan delay.
The results are shown in Table 3, in each case the “predicted product” being the product which would be produced if decarboxylation of the weak acid were to take place.

[2] = cited from earlier work
[3] = system: S. cerevisiae YO5833 (Δ pad1); test: Selection in agar, growth of Δ pad1 yeast; format: cell-based, Saccharomyces cerevisiae; conditions: 4-Methylcinnamic acid 0.096 mM in agar, pH 4.0, 10 days at 25° C.
Experimental: (§1) Buffered YEPD containing 4-Methylcinnamic acid, was prepared as follows: glycerol 20 g/l, Bacteriological peptone 20 g/l, yeast extract […], agar 15 g/l, succinic acid 3 g/l, 4-Methylcinnamic acid 15.55 mg/l (0.096 mM). Agar was sterilised by autoclaving at pH 6.0, cooled to 50° C., adjusted to pH 4.0, then poured into Petri dishes and allowed to set. Agar plates were spread with dilute cultures of S. cerevisiae BY4741 (PAD1) (upper half of plate—FIG. 8), and dilute cultures of S. cerevisiae YO5833—Euroscarf (Δ pad1) on the lower half of the plate.

[4] = system: S. cerevisiae BY4741 (PAD1) and S. cerevisiae YO5833 (Δ pad1); test: Selection of PAD1-gene containing yeast in broth culture by weak acid; format: cell-based, Saccharomyces cerevisiae; conditions: buffered YEPD pH 4.0, 14 days at 25° C., growth by OD 600 nm
Experimental: Flasks were cultured at 25° C. for 14 days, shaken at 120 rpm on an orbital shaker (25 mm orbit). After 14 days, yeast growth was measured by spectrophotometer at 600 nm (Optical Density, OD 600 nm).
Yeast strains S. cerevisiae BY4741 (PAD1) and S. cerevisiae YO5833—Euroscarf (Δ pad1) were separately inoculated at 10^3 cells/ml into 100 ml conical flasks containing 50 mls buffered YEPD pH 4.0 (glycerol 20 g/l, Bacteriological peptone 20 g/l, yeast extract 10 g/l, succinic acid 3 g/l, adjusted to pH 4.0 with potassium hydroxide) each containing higher concentrations of 4-Methylcinnamic acid, 0-0.11 mM. Flasks were cultured for 14 days at 25° C., shaken at 160 rpm on an orbital shaker (25 mm orbit). After 14 days, yeast growth was measured by spectrophotometer at 600 nm (Optical Density, OD 600 nm).

[5] = system: S. cerevisiae BY4741 (PAD1); test: Selection in agar, growth of PAD1-containing yeast; format: cell-based, Saccharomyces cerevisiae; conditions: 4-Methylcinnamic acid 0.096 mM in agar, pH 4.0, 10 days at 25° C.
Experimental: as §1

[6] = system: decarboxylase from mould spores; conditions: 1 mM sorbic acid, equimolar 1,3-pentadiene in headspace within 18 hours; cited from earlier work
[7] = Table 1, monocarboxylic weak acids
[8] = Table 2, most preferred weak acids

CC(=Cc1ccccc1)C(=O)O [alpha-methyl-cinnamic acid]
GCMS Peak area [1]: 889
Pka [2, 7]: 4.45
Pka [2, 8]: 4.45

O=C(O)/C=C/c1ccc(O)c(O)c1 [Caffeic acid]
GCMS Peak area [1]: 0
Pka [2, 7]: 4.7

CCCCCCC(=O)O [Heptanoic acid]
GCMS Peak area [1]: 0
Pka [2, 7]: 4.8

CCCC/C=C/C(=O)O [trans-2-Heptenoic acid]
GCMS Peak area [1]: 0
Pka [2, 7]: 3.7839

CC/C=C/CC(=O)O [trans-3-Hexenoic acid]
GCMS Peak area [1]: 0
Pka [2, 7]: 4.608

O=C(O)C=Cc1cccc(O)c1 [3-Hydroxy-cinnamic acid]
GCMS Peak area [1]: 0
Pka [2, 7]: 4.6

C/C=C/C(=O)O [Crotonic acid]
GCMS Peak area [1]: 0
Pka [2, 7]: 4.17

O=C(O)C(F)=Cc1ccccc1 [alpha-fluoro-cinnamic acid]
GCMS Peak area [1]: 2659
Pka [2, 7]: 4.45
Pka [2, 8]: 4.45

CCCCCCCC=CC(=O)O [2-Decenoic acid]
GCMS Peak area [1]: 0
Pka [2, 7]: 3.9018

O=C(O)C=Cc1cccs1 [3-(2-Thienyl)acrylic acid]
GCMS Peak area [1]: 20571
Pka [2, 7]: 4.2
Pka [2, 8]: 4.2

COc1cc(/C=C/C(=O)O)ccc1O [Ferulic acid]
GCMS Peak area [1]: 0
Pka [2, 7]: 4.58

O=C(O)C=Cc1ccccc1O [2-Hydroxy-cinnamic acid]
GCMS Peak area [1]: 0
Pka [2, 7]: 4.7

C=CCCCC(=O)O [5-Hexenoic acid]
GCMS Peak area [1]: 0
Pka [2, 7]: 4.81

CCCCC/C=C/C(=O)O [trans-2-Octenoic acid]
GCMS Peak area [1]: 0
Pka [2, 7]: 3.902

CC/C=C/C(=O)O [trans-2-Pentenoic acid]
GCMS Peak area [1]: 0
Pka [2, 7]: 4.1578

O=C(O)C=Cc1ccoc1 [3-Furan-acrylic acid]
GCMS Peak area [1]: 2165
Pka [2, 7]: 3.9
Pka [2, 8]: 3.9

C=CC=CC(=O)O [2,4-Pentadienoic acid]
GCMS Peak area [1]: 107
Pka [2, 7]: 4.72
Pka [2, 8]: 4.72

O=C(O)C(=Cc1ccccc1)c1ccccc1 [alpha-phenyl-cinnamic acid]
GCMS Peak area [1]: 0

Cc1ccc(C=CC(=O)O)cc1 [4-Methyl-cinnamic acid]
growth of Δ pad1 yeast on agar [3]: barely perceptible
GCMS Peak area [1]: 11013
concentration range showing good selection for PAD1-containing yeasts [4]: 0.075 to 0.11 mM
growth of PAD1-containing yeast cells on agar [5]: formed large colonies

O=CC=Cc1ccccc1 [Cinnamaldehyde]
GCMS Peak area [1]: 0

COc1ccc(C=CC(=O)O)c(OC)c1OC [2,3,4-Trimethoxy-cinnamic acid]
GCMS Peak area [1]: 0

C=CCC/C=C/C(=O)O [trans, trans-2,6-Heptadienoic acid]
GCMS Peak area [1]: 0
Pka [2, 7]: 3.7528

O=C(O)C=Cc1ccc(F)cc1 [4-Fluoro-cinnamic acid]
GCMS Peak area [1]: 18699
concentration range showing good selection for PAD1-containing yeasts [4]: 0.15 to 0.225 mM

O=C(O)C=Cc1cccc(C(F)(F)F)c1 [3-Trifluoromethyl-cinnamic acid]
GCMS Peak area [1]: 946

CC/C=C\CC(=O)O [cis-3-Hexenoic acid]
GCMS Peak area [1]: 0
Pka [2, 7]: 4.608

CN(C)c1ccc(C=CC(=O)O)cc1 [4-Dimethylamino-cinnamic acid]
GCMS Peak area [1]: 0

O=C(O)C=Cc1ccc(Cl)cc1 [4-Choro-cinnamic acid]
GCMS Peak area [1]: 12391

O=C(O)C=Cc1ccccc1[N+](=O)[O-] [2-Nitro-cinnamic acid]
GCMS Peak area [1]: 0

O=C(O)C=Cc1ccco1 [Furylacrylic acid]
GCMS Peak area [1]: 15611

COc1ccc(C=CC(=O)O)c(OC)c1 [2,4-Dimethoxy-cinnamic acid]
GCMS Peak area [1]: 30

Cc1ccccc1C=CC(=O)O [2-Methyl-cinnamic acid]
GCMS Peak area [1]: 18046

CCCCCCC=CC(=O)O [2-Nonenoic acid]
GCMS Peak area [1]: 0
Pka [2, 7]: 3.9148

O=Cc1ccc(C=CC(=O)O)cc1 [4-Formyl-cinnamic acid]
GCMS Peak area [1]: 0

CC(C)=CCC/C(C)=C/C(=O)O [Geranic acid]
GCMS Peak area [1]: 0
Pka [2, 7]: 4.7211

O=C(O)C=Cc1ccc(C(F)(F)F)cc1 [4-Trifluoromethyl-cinnamic acid]
GCMS Peak area [1]: 1600

O=C(O)C=Cc1ccccc1Br [2-Bromo-cinnamic acid]
GCMS Peak area [1]: 2912

CCC/C=C/C(=O)O [trans-2-Hexenoic acid]
GCMS Peak area [1]: 0
Pka [2, 7]: 3.8306

COc1cccc(C=CC(=O)O)c1 [3-Methoxy-cinnamic acid]
GCMS Peak area [1]: 178

C/C=C/CCC(=O)O [trans-4-Hexenoic acid]
GCMS Peak area [1]: 0
Pka [2, 7]: 4.6984

O=C(O)C=Cc1ccsc1 [3-(3-Thienyl)acrylic acid]
GCMS Peak area [1]: 1586
Pka [2, 7]: 4.1
Pka [2, 8]: 4.1

O=C(O)CCc1ccccc1 [Hydrocinnamic acid]
GCMS Peak area [1]: 0

O=C(O)C/C=C/c1ccccc1 [trans-Styrylacetic acid]
GCMS Peak area [1]: 0
Pka [2, 7]: 4.688

C/C=C/C=C/C(=O)O [Sorbic acid]
removal of weak acid by decarboxylase [6]: completely removed
GCMS Peak area [1]: 8795
